Measurements: patent US11141403B2, “Benzimidazoles and indoles as taro inhibitors” (MERCK SHARP & DOHME CORP., priority 2015, dated 2021)

Test system: MRSA COL (MB5393)
Assay: TarO Inhibitor/β-Lactam Synergy Assay
Assay type: cell-based, Staphylococcus aureus
Settings: 20 hours; for IC95: Staphylococcus aureus, TarO inhibitor alone, OD600, 95% growth inhibition, read-out: MITC95 TarO inhibitor alone, Bacteria: SA_MB5393; for MITC95 TarO inhibitor + 4 μg/mL IPM; Bacteria: SA_MB5393: in combination with 4 μg/mL imipenem; for MITC95 TarO inhibitor + 4 μg/mL IPM; Bacteria: SA_MB5393 / MITC95 TarO inhibitor + 8 μg/mL DCX; Bacteria: SA_MB5393: OD600; for MITC95 TarO inhibitor + 8 μg/mL DCX; Bacteria: SA_MB5393: in combination with 8 μg/mL dicloxacillin
Protocol: The TarO inhibitor/β-lactam synergy assay was performed to measure the re-sensitization of methicillin-resistant Staphylococci bacteria (MB5393: MRSA COL) to β-lactam antibiotics by TarO inhibitors. MRSA COL is a hospital-acquired penicillinase-negative clinically isolated strain commonly used in Staphylococcus aureus studies and is fully resistant to the antimicrobial bioactivity of β-lactam antibiotics, including but not limited to imipenem and dicloxacillin. […] MRSA COL is fully refractory to β-lactam antibiotic effect at the current clinical breakpoint concentrations and as such MRSA COL is fully viable at these concentrations.
The β-lactam antibiotic concentration was fixed at the clinical breakpoint (imipenem 4 μg/ml or dicloxacillin 8 μg/ml) and the TarO inhibitors were titrated by 2 fold starting from the highest concentration of 200 μM with final DMSO concentration of 2% in the assay. 5×10^5 colony forming unit of MRSA COL in cation-adjusted Mueller Hinton broth (CAMHB) was then mixed and the assay plate was incubated for 20 hours at 37° C. without shaking. After 20 hours, the optical density at 600 nm (OD600) was read for all wells to determine relative growth of MRSA COL.

| Structure (SMILES) | IC95 [µM] | MITC95 TarO inhibitor + 4 μg/mL IPM; Bacteria: SA_MB5393 [µM] | MITC95 TarO inhibitor + 8 μg/mL DCX; Bacteria: SA_MB5393 [µM] |
| --- | --- | --- | --- |
| CCN(C(=O)CCn1c2cc(-c3ccccc3)ccc2nc1[C@H]1CC[C@H](CC)CC1)C1CCCCC1 [Example 24, N-cyclohexyl-N-ethyl-3-(2-(trans-4-ethylcyclohexyl)-6-phenyl-1H-benzo[d]imidazol-1-yl)propanamide] | > 200 | 0.04 | 0.46 |
| CCN(C(=O)CCn1c2cc(-c3cnn(C)c3)ccc2nc1[C@H]1CC[C@H](CC)CC1)C1CCCCC1 [Example 25, N-cyclohexyl-N-ethyl-3-[2-(trans-4-ethylcyclohexyl)-6-(1-methyl-1H-pyrazol-4-yl)-1H-benzimidazol-1-yl]propanamide] | > 200 | 0.38 | 1.30 |
| CCN(C(=O)CCn1c2ccc(C3CC3)cc2nc1[C@H]1CC[C@H](CC)CC1)C1CCCCC1 [Example 26, N-cyclohexyl-3-[5-cyclopropyl-2-(trans-4-ethylcyclohexyl)-1H-benzimidazol-1-yl]-N-ethylpropanamide] | > 200 | 1.30 | 4.17 |
| CCN(C(=O)CCn1c2cc(CN)ccc2nc1[C@H]1CC[C@H](CC)CC1)C1CCCCC1 [Example 27, 3-[6-(aminomethyl)-2-(trans-4-ethylcyclohexyl)-1H-benzimidazol-1-yl]-N-cyclohexyl-N-ethylpropanamide] | > 200 | 37.50 | 50 |
| CCN(C(=O)CCn1c2cc(C[C@H]3CCOC3)ccc2nc1[C@H]1CC[C@H](CC)CC1)C1CCCCC1 [Example 28, N-cyclohexyl-N-ethyl-3-{2-(trans-4-ethylcyclohexyl)-6-[(3S)-tetrahydrofuran-3-ylmethyl]-1H-benzimidazol-1-yl}propanamide] | > 200 | 1.30 | 4.17 |
| CCN(C(=O)CCn1c2cccc(C[C@H]3CCOC3)c2nc1[C@H]1CC[C@H](CC)CC1)C1CCCCC1 [Example 29, N-cyclohexyl-N-ethyl-3-{2-(trans-4-ethylcyclohexyl)-4-[(3S)-tetrahydrofuran-3-ylmethyl]-1H-benzimidazol-1-yl}propanamide] | > 200 | 1.56 | 6.25 |
| CCN(C(=O)CCn1c2cc(CN3CCN(CC(F)(F)F)CC3)ccc2nc1[C@H]1CC[C@H](CC)CC1)C1CCCCC1 [Example 30, N-cyclohexyl-N-ethyl-3-[2-(trans-4-ethylcyclohexyl)-6-{[4-(2,2,2-trifluoroethyl)piperazin-1-yl]methyl}-1H-benzimidazol-1-yl]propanamide] | > 200 | 18.75 | 25 |
| CCN(C(=O)CCn1c2cc(CN3CC(F)(F)C3)ccc2nc1[C@H]1CC[C@H](CC)CC1)C1CCCCC1 [Example 31, N-cyclohexyl-3-{6-[(3,3-difluoroazetidin-1-yl)methyl]-2-(trans-4-ethylcyclohexyl)-1H-benzimidazol-1-yl}-N-ethylpropanamide] | > 200 | 6.25 | 50 |
| CCN(C(=O)CCn1c2cccc(N3CCOCC3)c2nc1[C@H]1CC[C@H](CC)CC1)C1CCCCC1 [Example 32, N-cyclohexyl-N-ethyl-3-[2-(trans-4-ethylcyclohexyl)-4-morpholin-4-yl-1H-benzimidazol-1-yl]propanamide] | > 200 | 20.83 | 20.83 |
| CC1(C)[C@@H]2CC[C@@]1(C)[C@H](NC(=O)CCn1c3ccccc3nc1[C@H]1CC[C@@H](C(C)(C)C)CC1)C2 [Example 33, 3-[2-(cis-4-tert-butylcyclohexyl)-1H-benzimidazol-1-yl]-N-[(1R,2R,4R)-1,7,7-trimethylbicyclo[2.2.1]hept-2-yl]propanamide] | > 200 | 0.06 |  |
| CCN(C(=O)CCn1c(-c2ccc(OCC(F)(F)F)cc2)nc2ccccc21)C1CCCCC1 [Example 34, N-cyclohexyl-N-ethyl-3-{2-[4-(2,2,2-trifluoroethoxy)phenyl]-1H-benzimidazol-1-yl}propanamide] | > 200 | 0.25 | 0.54 |
| CCN(C(=O)CCn1c(C2CCCCC2)nc2ccccc21)C1CCCCC1 [Example 35, N-cyclohexyl-3-(2-cyclohexyl-1H-benzimidazol-1-yl)-N-ethylpropanamide] | > 200 | 1.95 | 9.38 |
| CCN(C(=O)CCn1c(-c2ccc(C(=O)OC)cc2)nc2ccccc21)C1CCCCC1 [Example 36, methyl 4-(1-{3-[cyclohexyl(ethyl)amino]-3-oxopropyl}-1H-benzimidazol-2-yl)benzoate] | > 200 | 0.68 | 3.91 |
| CCOc1ccc(-c2nc3ccccc3n2CCC(=O)N(CC)C2CCCCC2)cn1 [Example 38, N-cyclohexyl-3-[2-(6-ethoxypyridin-3-yl)-1H-benzimidazol-1-yl]-N-ethylpropanamide] | > 200 | 2.08 | 12.50 |
| CN(C(=O)CCn1c(C2CCCCC2)nc2ccccc21)C1CCCCC1 [Example 39, N-cyclohexyl-3-(2-cyclohexyl-1H-benzimidazol-1-yl)-N-methylpropanamide] | > 200 | 4.69 | 12.50 |
| CC(C)(C)OC(=O)NCC1CCC(c2nc3ccccc3n2CCC(=O)NC2C[C@H]3CC[C@]2(C)C3(C)C)CC1 (stereo partly drawn) [Example 40, tert-butyl ({4-[1-(3-oxo-3-{[(1R,4R)-1,7,7-trimethylbicyclo[2.2.1]hept-2-yl]amino}propyl)-1H-benzimidazol-2-yl]cyclohexyl}methyl) carbamate] | > 200 | 2.34 | 9.38 |
| CC(C)(C)OC(=O)N1CCC(c2nc3ccccc3n2CCC(=O)NC2C[C@H]3CC[C@]2(C)C3(C)C)C1 (stereo partly drawn) [Example 41, tert-butyl 3-[1-(3-oxo-3-{[(1R,4R)-1,7,7-trimethylbicyclo[2.2.1]hept-2-yl]amino}propyl)-1H-benzimidazol-2-yl]pyrrolidine-1-carboxylate] | > 200 | 5.47 | 37.50 |
| CCN(C(=O)CCn1c(-c2ccc(-n3ccnn3)cc2)nc2ccccc21)C1CCCCC1 [Example 42, N-cyclohexyl-N-ethyl-3-{2-[4-(1H-1,2,3-triazol-1-yl)phenyl]-1H-benzimidazol-1-yl}propanamide] | > 200 | 18.75 | 25.00 |
| CCN(C(=O)CCn1c(C2CCCN(c3nccc(OC)n3)C2)nc2ccccc21)C1CCCCC1 (centres unmarked) [Example 43, N-cyclohexyl-N-ethyl-3-(2-(1-(4-methoxypyrimidin-2-yl)piperidin-3-yl)-1H-benzo[d]imidazol-1-yl)propanamide] | 100 | 0.20 | 0.78 |
| CCN(C(=O)CCn1c(C2CCC(C)N(c3cccc(OC)n3)C2)nc2ccccc21)C1CCCCC1 (centres unmarked) [Example 44, N-cyclohexyl-N-ethyl-3-{2-[1-(6-methoxypyridin-2-yl)-6-methylpiperidin-3-yl]-1H-benzimidazol-1-yl}propanamide] | 100 | 0.10 | 0.20 |
| CCCCOC(=O)N1CCCC(c2nc3ccccc3n2CCC(=O)N(CC)C2CCCCC2)C1 (centres unmarked) [Example 45, butyl 3-(1-{3-[cyclohexyl(ethyl)amino]-3-oxopropyl}-1H-benzimidazol-2-yl)piperidine-1-carboxylate] | 100 | 0.20 | 0.78 |
| CCc1nsc(N2CCCC(c3nc4ccccc4n3CCC(=O)N(CC)C3CCCCC3)C2)n1 (centres unmarked) [Example 46, N-cyclohexyl-N-ethyl-3-{2-[1-(3-ethyl-1,2,4-thiadiazol-5-yl)piperidin-3-yl]-1H-benzimidazol-1-yl}propanamide] | 100 | 1.56 | 6.25 |
| CCN(C(=O)CCn1c(C2CCCN(c3cccc(OC)n3)C2)nc2ccccc21)C1CCCCC1 (centres unmarked) [Example 47, N-cyclohexyl-N-ethyl-3-{2-[1-(6-methoxypyridin-2-yl)piperidin-3-yl]-1H-benzimidazol-1-yl}propanamide] | 100 | 0.10 | 0.20 |
